Laboratory results reported in patent publication US10766912B2 (priority 2017, dated 2020).
Read-outs that look alike come from different tables or passages of the source.

How the values were obtained:
Type in all cases: cell-based
[1] = test system: HCV GT1b/3a NS5A chimeric replicon; experiment: Assay Example 1: activity against HCV GT1b/3a NS5A chimeric replicon; conditions: Hepatitis C virus, Huh-7, 72 h, read-out: EC50 value GT1b/3a NS5A chimeric replicon
Method: (§1) Cells: Huh 7 cell line and HCV GT1b/3a and GT1b/6a NS5A chimeric replicons and GT1b and GT1a wild-type replicon RNA.
(§2) Treatment of Compound: According to the assay final concentrations of the compounds in Table 2, DMSO stock solutions of the compounds were diluted and then added to a 96-well assay plate. The final concentration of DMSO was 0.5%.
(§3) The preparation of cells: After replicon plasmid DNA was linearized with a corresponding restriction enzyme, the DNA was transcribed into RNA by using T7RNA polymerase. Replicon RNA prepared by transcription in vitro was transfected into Huh-7 cells by electroporation. Transfected cells were seeded at a density of 10,000 cells per well into the 96-well assay plate containing the diluted compounds, and then the plate was placed in a 37° C. incubator with 5% CO2 and cultured for 3 days.
(§4) Drug activity assay: Luminescence signal value (RLU) was detected with Envision within 15 minutes using the luciferase assay reagent Britelite plus, and the original data (RLU) was used for the calculation of the activity of the compounds.
(§5) The activity of the compounds was calculated by using the equation below: Inhibition %=(ZPE−CPD)/(ZPE−HPE)×100%*
(§6) The cell viability percentages (Viability %) and the inhibition percentages (Inhibition %) were imported into GraphPad Prism software, respectively, and curves were fitted by using nonlinear regression method to obtain the corresponding curves of the compounds, and the cytotoxicity (CC50) thereof and inhibitory activity (EC50) values against the HCV replicon thereof.

[2] = test system: HCV GT1b/6a NS5A chimeric replicon; experiment: Assay Example 1: activity against HCV GT1b/6a NS5A chimeric replicon; conditions: Hepatitis C virus, Huh-7, 72 h, read-out: EC50 value GT1b/6a NS5A chimeric replicon
Method: as §1, §2, §3, §4, §5, §6

in vitro = conditions: human; Huh 7 cells with GT1b wild-type replicon, 3 days, CellTiter-Fluor
Method: as §1, §2, §3
(§7) Cell viability assay: A cell growth fluorescent titration detection reagent CellTiter-Fluor was added to the 96-well plate of the GT1b wild-type replicon. After the cells were cultured for 1 hour in a 37° C. incubator with 5% CO2, the fluorescence signal value (RFU) was detected by Envision, and the original data (RFU) was used for the calculation of the cytotoxicity of the compounds.
The cytotoxicity of the compounds was calculated by using the equation below: Cell Viability %=(CPD−HPE)/(ZPE−HPE)×100%*
as §6

[3] = test system: HCV GT1b wild-type replicon; experiment: Assay Example 1: activity against HCV GT1b wild-type replicon (luciferase, transient transfection); conditions: Hepatitis C virus, 72 h, Huh 7 cells, 3 days
Method: as §1, §2, §3, §4, §5, §6

[4] = test system: HCV GT1a wild-type replicon; experiment: Assay Example 1: activity against HCV GT1a wild-type replicon; conditions: Hepatitis C virus, 72 h, Huh 7 cells, 3 days, luciferase
Method: as §1, §2, §3, §4, §5, §6

[5] = test system: HCV GT1b/6a NS5A chimeric replicon; experiment: Assay Example 2: activity against GT1b/6a NS5A chimeric replicon; conditions: Hepatitis C virus, Huh-7, 72 h, read-out: EC50 Value GT1b/6a-NS5A-wt
Method: (§8) Cells: Huh-7 cells are liver cancer cell strains (from AppTec, USA), HCV GT1a and GT1b wild type (wt) replicons, GT1b/3a, GT1b/4a, GT1b/5a and GT1b/6a NS5A chimeric replicons.
(§9) Treatment of Compound: According to the assay final concentrations of the compounds in Table 5, DMSO stock solutions of the compounds were diluted and then added to a 96-well assay plate. The final concentration of DMSO was 0.5%.
as §3, with “T7 RNA” for “T7RNA”, “then” for “then the plate was”
as §4
(§10) The cytotoxicity of the compounds was calculated by using the equation below: Cell Viability %=(CPD−HPE)/(ZPE−HPE)×100%* The activity of the compounds was calculated by using the equation below: Inhibition %=(ZPE−CPD)/(ZPE−HPE)×100%*
as §6, with “thereof and the inhibitory activity” for “thereof and inhibitory activity”

[6] = Assay Example 2: cell viability assay (CellTiter-Fluor), GT1b wild-type replicon plate; conditions: human, Huh-7 cells with GT1b wild-type replicon, read-out: CC50 Value GT1b-wt
Method: as §8, §9
as §3, with “T7 RNA” for “T7RNA”, “then” for “then the plate was”
as §7, §10
as §6, with “thereof and the inhibitory activity” for “thereof and inhibitory activity”

[7] = test system: HCV GT1b/3a NS5A chimeric replicon; experiment: Assay Example 2: activity against GT1b/3a NS5A chimeric replicon; conditions: Hepatitis C virus, Huh-7, 72 h, read-out: EC50 Value GT1b/3a-NS5A-wt
Method: as §8, §9
as §3, with “T7 RNA” for “T7RNA”, “then” for “then the plate was”
as §4, §10
as §6, with “thereof and the inhibitory activity” for “thereof and inhibitory activity”

[8] = test system: HCV GT1b wild type (wt) replicon; experiment: Assay Example 2: activity against HCV GT1b wild-type replicon; conditions: Hepatitis C virus, read-out: EC50 Value GT1b-wt
Method: as §8, §9
as §3, with “T7 RNA” for “T7RNA”, “then” for “then the plate was”
as §4, §10
as §6, with “thereof and the inhibitory activity” for “thereof and inhibitory activity”

[9] = Huh-7 cells transfected with HCV GT1b wild-type replicon RNA
[10] = 72 h, Huh-7 cells, transient transfection, 3 days

| Compound | EC50 [1] [pM] | EC50 [2] [pM] | CC50 (in vitro) [pM] | EC50 [3] [pM] | EC50 [4] [pM] | EC50 [5] [pM] | CC50 at 3 days [6] [pM] | EC50 [7] [pM] | EC50 ([8]; Huh-7, 72 h) [pM] | CC50 at 3 days [6, 9] [pM] | EC50 [8, 10] [pM] |
| --- | --- | --- | --- | --- | --- | --- | --- | --- | --- | --- | --- |
| COC(=O)N[C@H](C(=O)N1CCC[C@H]1C(=O)Nc1ccc([C@H]2CC[C@H](c3ccc(NC(=O)[C@@H]4CCCN4C(=O)[C@@H](NC(=O)OC)[C@@H](C)OC)cc3)N2c2cc(F)c(N3CC[Si](C)(C)CC3)c(F)c2)cc1)[C@@H](C)OC [Compound 1b, Methyl ((2S,2′S,3R,3′R)-((2S,2′S)-(((((2R,5R)-1-(4-(4,4-dimethylazasilinan-1-yl)-3,5-difluorophenyl)pyrrolidin-2,5-diyl)bis(4,1-phenylene))bis(azanediyl))bis(carbonyl))bis(pyrrolidin-2,1-diyl))bis (3-methoxy-1-oxobutan-1,2-diyl))dicarbamate] | 4.8 | 114 | > 100 | 1.7 | 12 | – | – | – | – | – | – |
| COC(=O)N[C@H](C(=O)N1CCC[C@H]1C(=O)Nc1ccc([C@@H]2CC[C@@H](c3ccc(NC(=O)[C@@H]4CCCN4C(=O)[C@@H](NC(=O)OC)[C@@H](C)OC)cc3)N2c2ccc(N3CC[Si](C)(C)CC3)c(F)c2)cc1)[C@@H](C)OC [Compound 2a, Methyl ((2S, 2′S, 3R, 3′R)-((2S, 2′S)-(((((2S, 5S)-1-(4-(4,4-dimethylazasilinan-1-yl)-3-fluorophenyl)pyrrolidin-2,5-diyl)bis(4,1-phenylene))bis(azanediyl))bis(carbonyl))bis(pyrrolidin-2,1-diyl))bis(3-methoxy-1-oxobutan-1,2-diyl))dicarbamate] | 6 | 242 | > 100 | 2.9 | 12 | – | – | – | – | – | – |
| COC(=O)N[C@H](C(=O)N1CCC[C@H]1C(=O)Nc1ccc([C@H]2CC[C@H](c3ccc(NC(=O)[C@@H]4CCCN4C(=O)[C@@H](NC(=O)OC)[C@@H](C)OC)cc3)N2c2ccc(N3CC[Si](C)(C)CC3)c(F)c2)cc1)[C@@H](C)OC [Compound 2b, Methyl ((2S, 2′S, 3R, 3′R)-((2S, 2′S)-(((((2R, 5R)-1-(4-(4,4-dimethylazasilinan-1-yl)-3-fluorophenyl)pyrrolidin-2,5-diyl)bis(4,1-phenylene))bis(azanediyl))bis(carbonyl))bis(pyrrolidin-2,1-diyl))bis(3-methoxy-1-oxobutan-1,2-diyl))dicarbamate] | 14 | 454 | > 100 | 16 | 65 | – | – | – | – | – | – |
| COC(=O)N[C@H](C(=O)N1CCC[C@H]1C(=O)Nc1ccc([C@@H]2CC[C@@H](c3ccc(NC(=O)[C@@H]4CCCN4C(=O)[C@@H](NC(=O)OC)[C@@H](C)OC)cc3)N2c2cc(F)c(N3CC[Si]4(CCCC4)CC3)c(F)c2)cc1)[C@@H](C)OC [Compound 3a] | – | – | – | – | – | 4.5 | > 200 | 6.35 | 1.33 | – | – |
| COC(=O)N[C@H](C(=O)N1CCC[C@H]1c1nc2cc([C@@H]3CC[C@@H](c4ccc5[nH]c([C@@H]6CCCN6C(=O)[C@@H](NC(=O)OC)[C@@H](C)OC)nc5c4)N3c3cc(F)c(N4CC[Si](C)(C)CC4)c(F)c3)ccc2[nH]1)[C@@H](C)OC [Compound 4a] | 3.9 | 26 | > 100 | 11 | 5.4 | – | – | – | – | – | – |
| COC(=O)N[C@H](C(=O)N1CCC[C@H]1c1nc2cc([C@H]3CC[C@H](c4ccc5[nH]c([C@@H]6CCCN6C(=O)[C@@H](NC(=O)OC)[C@@H](C)OC)nc5c4)N3c3cc(F)c(N4CC[Si](C)(C)CC4)c(F)c3)ccc2[nH]1)[C@@H](C)OC [Compound 4b] | 1.5 | 5 | > 100 | 5.9 | 4.1 | – | – | – | – | – | – |
| COC(=O)N[C@H](C(=O)N1CCC[C@H]1c1nc2cc([C@@H]3CC[C@@H](c4ccc5[nH]c([C@@H]6CCCN6C(=O)[C@@H](NC(=O)OC)[C@@H](C)OC)nc5c4)N3c3ccc(N4CC[Si](C)(C)CC4)c(F)c3)ccc2[nH]1)[C@@H](C)OC [Compound 5a] | 13 | 174 | > 100 | 19 | 17 | – | – | – | – | – | – |
| COC(=O)N[C@H](C(=O)N1CCC[C@H]1c1nc2cc([C@H]3CC[C@H](c4ccc5[nH]c([C@@H]6CCCN6C(=O)[C@@H](NC(=O)OC)[C@@H](C)OC)nc5c4)N3c3ccc(N4CC[Si](C)(C)CC4)c(F)c3)ccc2[nH]1)[C@@H](C)OC [Compound 5b] | 6.3 | 16 | > 100 | 17 | 13 | – | – | – | – | – | – |
| COC(=O)N[C@H](C(=O)N1CCC[C@H]1C(=O)Nc1ccc([C@@H]2CC[C@@H](c3ccc4nc([C@@H]5CCCN5C(=O)[C@@H](NC(=O)OC)[C@@H](C)OC)[nH]c4c3)N2c2cc(F)c(N3CC[Si](C)(C)CC3)c(F)c2)cc1)[C@@H](C)OC [Compound 6a, Methyl ((2S,3R)-1-((S)-2-(6-((2S,5S)-1-(4-(4,4-dimethylazasilinan-1-yl)-3,5-difluorophenyl)-5-(4-((S)-1-(N-(methoxycarbonyl)-O-methyl-L-threonyl)pyrrolidin-2-formylamino)phenyl)pyrrolidin-2-yl)-1H-benzo[d]imidazol-2-yl)pyrrolidin-1-yl)-3-methoxy-1-oxobutan-2-yl)carbamate] | 5.2 | 230 | > 100 | 5.7 | 14 | – | – | – | – | – | – |
| COC(=O)N[C@H](C(=O)N1CCCC1C(=O)Nc1ccc([C@@H]2CC[C@@H](c3ccc(-c4cnc([C@@H]5CCCN5C(=O)[C@@H](NC(=O)OC)[C@@H](C)OC)[nH]4)cc3)N2c2cc(F)c(N3CC[Si](C)(C)CC3)c(F)c2)cc1)[C@@H](C)OC (stereo partly shown) [Compound 8a] | – | – | – | – | – | 9.05 | – | 79.7 | – | > 200 | 2.08 |
| COC(=O)N[C@H](C(=O)N1CCCC1C(=O)Nc1ccc([C@H]2CC[C@H](c3ccc(-c4cnc([C@@H]5CCCN5C(=O)[C@@H](NC(=O)OC)[C@@H](C)OC)[nH]4)cc3)N2c2cc(F)c(N3CC[Si](C)(C)CC3)c(F)c2)cc1)[C@@H](C)OC (stereo partly drawn) [Compound 8b, Methyl ((2S,3R)-1-((S)-2-((4-((2R,5R)-1-(4-(4,4-dimethylazasilinan-1-yl)-3,5-difluorophenyl-5-(4-(2-((S)-1-(N-methoxycarbonyl)-O-methyl-L-threonyl)pyrrolidin-2-yl)-1H-imidazazol-5-yl)phenyl)pyrrolidin-2-yl)phenyl)carbamoyl)pyrrolidin-1-yl)-3-methoxy-1-oxobutan-2-yl)carbamate] | – | – | – | – | – | 6.73 | – | 67.9 | – | > 200 | 1.59 |
| COC(=O)N[C@H](C(=O)N1CCCC1c1nc2cc([C@H]3CC[C@H](c4ccc(-c5cnc([C@@H]6CCCN6C(=O)[C@@H](NC(=O)OC)[C@@H](C)OC)[nH]5)cc4)N3c3cc(F)c(N4CC[Si](C)(C)CC4)c(F)c3)ccc2[nH]1)[C@@H](C)OC (stereo partly shown) [Compound 15b] | – | – | – | – | – | – | – | 7.28 | – | > 200 | 2.95 |
